# Assay results from patent US10092534B2, “Composition for treating headaches” (BIOHIT OYJ, priority 2012, dated 2018).
# What was measured:
# [1] = system: acetaldehyde from saliva; assay: Elimination of acetaldehyde from saliva during smoking by a cysteine lozenge (FIG. 3); type: in vivo, human; settings: lozenge containing 5 mg
# [2] = system: acetaldehyde in the saliva; assay: Salivary acetaldehyde during smoking while sucking L-cysteine tablets (gas chromatography of saliva samples); type: in vivo, human; settings: for average salivary acetaldehyde contents immediately after smoking: five smokers, one cigarette in 5 minutes, placebo 191.2±48.5 μM
# Experimental: Five smokers (of the age of 29±2.8) participated in a study, in which […] were smoked (with cleaning periods in between). While smoking each cigarette (in 5 minutes time), the voluntaries sucked tablets blindfold, containing a placebo, 1.25 mg, 2.5 mg, 5 mg, 10 mg or 20 mg of L-cysteine. The acetaldehyde in the saliva samples was analysed by gas chromatography after 0, 5, 10, 20 minutes from starting to smoke.
SMILES,elimination of acetaldehyde from saliva during smoking [1],average salivary acetaldehyde contents immediately after smoking ([2]; 5 mg L-cysteine sucking tablet) [µM],inactivation of acetaldehyde in the saliva during smoking ([2]; 5 mg of L-cysteine delivered with a melting tablet),average salivary acetaldehyde contents immediately after smoking ([2]; 10 mg L-cysteine sucking tablet) [µM],average salivary acetaldehyde contents immediately after smoking ([2]; 20 mg L-cysteine sucking tablet) [µM],"reduction of the amount of acetaldehyde compared with the placebo ([2]; L-cysteine tablet of 1.25 mg, saliva, during smoking)","removal of acetaldehyde originating from tobacco from the saliva ([2]; L-cysteine tablets 5 mg, 10 and 20 mg, during smoking, FIG. 1)"
N[C@H](CS)C(=O)O [D-cysteine],totally eliminates acetaldehyde,–,–,–,–,–,–
N[C@@H](CS)C(=O)O [L-cysteine],totally eliminates acetaldehyde,0,completely inactivated,0,0,about two thirds,removed from the saliva all of the acetaldehyde
